Results taken from patent US8673917B2, “2-heteroaryl-pyrrolo [3,4-C]pyrrole derivatives, and use thereof as SCD inhibitors” (Sanofi, priority 2008, dated 2014).
Structures can show the parent of a compound that is named as a salt.

Target: T1, SCD1 (Rattus norvegicus, UniProt P07308)
T1 construct: from tissue; host or cells: liver microsomes of male Wistar rats fed a carbohydrate-rich, low-fat diet
T1 sequence (P07308 1-358): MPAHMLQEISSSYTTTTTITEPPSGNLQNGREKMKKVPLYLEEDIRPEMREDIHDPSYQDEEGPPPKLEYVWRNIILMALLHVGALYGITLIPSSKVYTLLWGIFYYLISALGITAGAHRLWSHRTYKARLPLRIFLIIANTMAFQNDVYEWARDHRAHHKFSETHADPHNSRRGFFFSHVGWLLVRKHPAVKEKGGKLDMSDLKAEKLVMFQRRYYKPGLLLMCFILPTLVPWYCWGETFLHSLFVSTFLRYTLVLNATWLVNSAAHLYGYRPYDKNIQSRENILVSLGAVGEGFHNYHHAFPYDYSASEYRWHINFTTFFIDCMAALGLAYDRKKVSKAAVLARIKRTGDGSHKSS
Test: Stearoyl-CoA desaturase (SCD1) activity assay with rat liver microsomes, TLC with 1-14C-labeled stearic acid
Format: biochemical
Conditions: for IC50: SCD1 activity; for inhibition at 10 µM: inhibition of SCD1 activity at 10 μM/l
Procedure: The efficacy of the inventive compounds of the formula I was tested with microsomal enzymes in the following assay system:
The livers of male Wistar rats which (to induce the expression of SCD1) had been fed with a carbohydrate-rich, low-fat diet were homogenized with a Potter tissue homogenizer and differential centrifugation in a buffer which contained 250 mM/l of sucrose and 5 mM/l of HEPES (pH 7.0). The resuspended microsome fraction was stored at −80° C. The stearoyl-CoA desaturase activity was determined in a thin-film chromatography assay with 1-^14C-labeled stearic acid. In short, the particular inventive compounds (in DMSO in a final concentration of 1% [v/v]) were incubated with 15 μg of the rat liver microsomes in 200 μl of assay buffer (6 mM/l of MgCl2, 250 mM/l of sucrose, 150 mM/l of KCl, 40 mM/l of NaF, 100 mM/l of Na2HPO4 (pH7.4), 1.3 mM/l of ATP, 1.5 mM/l of reduced glutathione, 60 uM/l of CoA, 0.33 mM/l of nicotinamide and 0.94 mM/l of NADH) at room temperature for 10 min. 0.5 μCi [1-^14C]-stearic acid (55 mCi/mmol) was added, and the mixture was incubated at 37° C. for 1 h. The radioactively labeled fatty acids were subsequently hydrolyzed at 65° C. with 2.5 M KOH/MeOH:H2O (4:1) for 4 h, protonated with 280 μl of formic acid and extracted with 500 μl of hexane. The TLC plates were immersed into 10% AgNO3 and heat-activated before use. 150 μl of the hexane phase were applied to the plates, and the TLC plates were developed in buffer (chloroform:methanol:acetic acid:water [90:8:1:0.8]) and dried. The plates were read off in a phosphoimager to quantify the SCD1 activity.
The person skilled in the art can modify this assay in various aspects to determine the inhibition of the stearoyl-CoA desaturase activity.

Structure (SMILES): O=C(c1ccccc1C(F)(F)F)N1CC2=C(C1)CN(c1ccc(OCc3ccccc3)nn1)C2 [Example 3, [5-(6-Benzyloxpyridazin-3-yl)-3,4,5,6-tetrahydro-1H-pyrrolo[3,4-c]pyrrol-2-yl](2-trifluoromethylphenyl)methanone]
- IC50: 7.18 nM
- inhibition at 10 µM: 100%

Structure (SMILES): O=C(c1ccccc1C(F)(F)F)N1CC2=C(C1)CN(c1ccc(OCc3ccccn3)nn1)C2 [Example 9, 5-[6-(Pyridin-2-ylmethoxy)pyridazin-3-yl]-3,4,5,6-tetrahydro-1H-pyrrolo[3,4-c]pyrrol-2-yl}-(2-trifluoromethylphenyl)methanone hydrochloride]
- IC50: 1340 nM

Structure (SMILES): O=C(c1ccccc1C(F)(F)F)N1CC2=C(C1)CN(c1ccc(OCCC3CC3)nn1)C2 [Example 5, {5-[6-(2-Cyclopropylethoxy)pyridazin-3-yl]-3,4,5,6-tetrahydro-1H-pyrrolo[3,4-c]pyrrol-2-yl}-(2-trifluoromethylphenyl)methanone trifluoroacetate]
- IC50: 213 nM

Structure (SMILES): O=C(c1ccccc1C(F)(F)F)N1CC2=C(C1)CN(c1ccc(OCc3ccccc3)nn1)C2 [Example 8, 5-(6-Benzyloxypyridazin-3-yl)-3,4,5,6-tetrahydro-1H-pyrrolo[3,4-c]pyrrol-2-yl](2-trifluoromethylphenyl)methanone hydrochloride]
- IC50: 8.48 nM

Structure (SMILES): O=C(c1ccccc1C(F)(F)F)N1CC2=C(C1)CN(c1ccc(OCc3nccs3)nn1)C2 [Example 2, {5-[6-(Thiazol-2-ylmethoxy)pyridazin-3-yl]-3,4,5,6-tetrahydro-1H-pyrrolo[3,4-c]pyrrol-2-yl}-(2-trifluoromethylphenyl)methanone]
- IC50: 795 nM
- inhibition at 10 µM: 86%

Structure (SMILES): O=C(c1ccccc1C(F)(F)F)N1CC2=C(C1)CN(c1ccc(OCc3ccccc3)cn1)C2 [Example 1, [5-(5-Benzyloxypyridin-2-yl)-3,4,5,6-tetrahydro-1H-pyrrolo[3,4-c]pyrrol-2-yl](2-trifluoromethylphenyl)methanone]
- IC50: 133 nM
- inhibition at 10 µM: 80%

Structure (SMILES): O=C(c1ccccc1C(F)(F)F)N1CC2=C(C1)CN(c1ccc(OCCc3ccccc3)nn1)C2 [Example 4, [5-(6-Phenethyloxypyridazin-3-yl)-3,4,5,6-tetrahydro-1H-pyrrolo[3,4-c]pyrrol-2-yl](2-trifluoromethylphenyl)methanone trifluoroacetate]
- IC50: 43.4 nM

Structure (SMILES): O=C(c1ccccc1C(F)(F)F)N1CC2=C(C1)CN(c1ccc(OCC3CCOCC3)nn1)C2 [Example 7, {5-[6-(Tetrahydropyran-4-ylmethoxy)pyridazin-3-yl]-3,4,5,6-tetrahydro-1H-pyrrolo[3,4-c]pyrrol-2-yl}-(2-trifluoromethylphenyl)methanone trifluoroacetate]
- IC50: 7120 nM

Structure (SMILES): O=C(c1ccccc1C(F)(F)F)N1CC2=C(C1)CN(c1ccc(OCc3cscn3)nn1)C2 [Example 6, {5-[6-(Thiazol-4-ylmethoxy)pyridazin-3-yl]-3,4,5,6-tetrahydro-1H-pyrrolo[3,4-c]pyrrol-2-yl}-(2-trifluoromethylphenyl)methanone trifluoroacetate]
- IC50: 483 nM
